Reference: a melting point compilation (Tetko et al.; mined from patent text by program, amines drawn as free bases though some values may be those of a salt)

First: O=C(O)c1ccc(COCc2csc3nc(C(=O)NCc4ccc(Cl)c(Cl)c4)[nH]c(=O)c23)cc1
Second: O=C(Cc1ccc(Cl)cc1)Nc1cc(CC2SC(=O)NC2=O)ccc1O (stereo not drawn)
The melting point of the first is higher: 252 to 253 °C for the first, 207 to 209 °C for the second.

First: CC(S)C(=O)Nc1ccc(C2=NNC(=O)CC2C)cc1 (stereo not drawn)
Second: CC(=O)Nc1ccc(S(=O)(=O)Nc2ccn(CC3CC3)c(=O)n2)cc1
The melting point of the first is higher: 236 to 237 °C for the first, 222 to 224 °C for the second.

First: Cc1c(Cl)cccc1Nc1ncccc1[N+](=O)[O-]
Second: NCCc1cn(S(=O)(=O)c2ccccc2Cl)c2cccnc12
The melting point of the first is higher: 134 to 135 °C for the first, 106 to 108 °C for the second.

Compared with `Fc1ccc(OC2CCN(CCc3c[nH]c4ccc(OCc5ccccc5)cc34)CC2)cc1`, `COc1ccccc1NC(=O)Nc1ccc(C2CCN(C(=O)Nc3ccc(OCC(O)CO)cc3Cl)CC2)cc1` (stereo not drawn) is higher in melting point: 134 to 136 °C for the first, 158 to 161 °C for the second.

First: O=C(Cl)c1ccc(-c2nc(C(Cl)(Cl)Cl)nc(C(Cl)(Cl)Cl)n2)cc1
Second: COc1cc(C)nc(-c2ccc(CBr)cc2)n1
The melting point of the first is higher: 100 to 101 °C for the first, 98 to 99 °C for the second.

First: Cc1nc2c(O)c(CCC(=O)c3ccc(F)cc3)c(C(=O)N(C)C)cc2n1C
Second: Cc1nc2c3c(c(C(=O)N(C)C)cc2n1C)CCC(c1ccccc1)N3 (stereo not drawn)
The melting point of the first is higher: 248 to 249 °C for the first, 167 to 170 °C for the second.

`CCNCC1CCN(c2c(F)cc3c(=O)c(C(=O)O)cn(C4CCCCC4)c3c2F)C1` (stereo not drawn) and `NC1(NC(=O)C(F)(F)F)CN(c2c(F)cc3c(=O)c(C(=O)O)cn(-c4ccc(F)cc4F)c3c2F)C1` cannot be ordered by melting point: 194 to 196 °C for the first, 190 to 196 °C for the second.

First: CSC1CC(=O)N1CC(=O)O (single isomer, unassigned; (+))
Second: CC1(C)CCSc2cc(C(=O)O)ccc21
The melting point of the first is lower: 117 to 118 °C for the first, 202 to 204 °C for the second.

First: COC(=O)c1cn(Cc2ccc(OCc3nc(-c4ccccc4)oc3C)cc2)cc1-c1ccccc1
Second: COC(=O)c1ccccc1-c1cc(-c2ccc(OC)cc2)n(C(C)=O)n1
The melting point of the first is lower: 115 to 116 °C for the first, 119 to 121 °C for the second.

First: CC(CO)NC(=O)NCCCCC1CCSS1 (stereo not drawn)
Second: CC(C)OCCCNC(=O)C(C)(C(C)C)C(C)C
The melting point of the first is higher: 87 to 89 °C for the first, 32 °C for the second.

First: COC(=O)c1ccc(-c2cc[nH]n2)cc1Cl
Second: Cc1ccc(-c2csc(C(=O)Nc3nnn[nH]3)n2)cc1
The melting point of the first is lower: 130 to 131 °C for the first, 276 to 278 °C for the second.

`COc1cccc(N(c2ccccc2)c2ccc(-c3ccc(N(c4ccccc4)c4cccc(OC)c4)cc3)cc2)c1` and `COc1ccccc1N1CCN(CCn2nc(-c3c(-c4ccccc4)nn4ccccc34)ccc2=O)CC1` fall in the same range of melting point: 120 to 125 °C for the first, 120 to 125 °C for the second.

Compared with `Cc1c(NC(=O)CC(C)(C)C)cc2c(c1C)OC(C)(C)C2(O)c1cccc(C=O)c1` (stereo not drawn), `Cc1cc(C)cc(S(=O)(=O)n2c(COC(C)(C)C(=O)O)cc3nc(Cl)ccc32)c1` is lower in melting point: 189 to 190 °C for the first, 154 °C for the second.

First: COc1ccc2cc(C(C)C(=O)O)ccc2c1Br (stereo not drawn)
Second: COc1ccc(C(=O)N2CCc3cc(O)c(OC)cc3C2=O)cc1
The melting point of the first is lower: 149 to 151 °C for the first, 224 to 225 °C for the second.

First: CN(C(=O)C1CCC1)c1cccc(-c2ccnc3c(C#N)cnn23)c1
Second: Cc1nc2ccccc2n1-c1ccc(C(=O)N(C)C2CCNCC2)cc1
The melting point of the first is lower: 157 to 158 °C for the first, 219 to 221 °C for the second.

Compared with `O=C1CCCN(C(=O)c2ccc([N+](=O)[O-])cc2Cl)c2ccsc21`, `O=[N+]([O-])c1ccc2[nH]c(/C=C/c3ccoc3)nc2c1` is higher in melting point: 180 to 185 °C for the first, 230 to 233 °C for the second.

First: Cc1c(OCc2ccccc2)c(=O)ccn1CCOC(=O)C(C)(C)C
Second: CC(C)(C)OC(=O)N1c2ccccc2CC1c1ccccc1N (stereo not drawn)
The melting point of the first is lower: 103 to 106 °C for the first, 114 to 117 °C for the second.

Compared with `O=C(c1ccc(O)cc1)c1cccc2[nH]ccc12`, `O=C(Nc1ccc(O)cc1)OCc1ccccc1` is lower in melting point: 177 °C for the first, 153 to 154 °C for the second.

Compared with `O=C(O)c1c2c(nc3ccc(F)cc13)-c1ccc(-c3cccc(F)c3)cc1CCC2`, `Cc1nc2c(-c3cccc(N4CCN(CCO)CC4)c3)cnn2c(N)c1-c1ccc(F)c(Cl)c1` is lower in melting point: greater than 300 °C for the first, 104 to 107 °C for the second.

Compared with `O=C(O)c1cnc(Nc2cc3c4c(c2)CCCC4CCC3)nc1`, `O=C(NCC1Cc2c(Cl)cc3c(c2O1)CCC3)OCc1ccccc1` (stereo not drawn) is lower in melting point: 296 to 298 °C for the first, 127 to 130 °C for the second.

Compared with `Cn1ncc2c1-c1c(Sc3ccccc3)sc(C(=O)O)c1CC2`, `O=C(O)c1cc(NCc2ccccc2)c(-c2ccccc2)c([N+](=O)[O-])c1` is lower in melting point: 205 to 206 °C for the first, 188 to 189 °C for the second.

First: CC(C)c1ccc(S(=O)(=O)NC(=O)Cc2ccc3c(c2)OCO3)cc1
Second: CC(C)c1ccc(S(=O)(=O)n2c(CCC(=O)O)cc3cc(Cl)ccc32)cc1
The melting point of the first is higher: 262 to 263 °C for the first, 150 to 154 °C for the second.

Compared with `C=CCOC(=O)c1c(C)nc2c(cnn2CCC(C)CC)c1N` (stereo not drawn), `Cc1cc(=O)oc2c1c(C)nn2CCO` is higher in melting point: 85 to 86 °C for the first, 152 to 153 °C for the second.

Compared with `CCOc1cc2c(Cl)c(C#N)cnc2cc1NC(C)=O`, `C=CCOc1cc(CC(C#N)=CNc2ccccc2)cc(OCC=C)c1NC(C)=O` is lower in melting point: 202 to 204 °C for the first, 176 to 178 °C for the second.

Compared with `N#Cc1ccc(OCCCCCCOc2cccc(-c3cc4ccc(C#N)cc4o3)c2)cc1`, `CCOc1ccc(C(=O)N(C)Cc2cccc(-c3ccc(CC4SC(=O)NC4=O)cc3)c2)cc1` (stereo not drawn) is higher in melting point: 125 to 127 °C for the first, 182 °C for the second.

Compared with `CCCCCCCCOC1(OC(=O)C2CCCO2)C=CC(c2ccccc2)=CC1` (stereo not drawn), `O=C1C2CCCC2=Nc2ccccc2N1Cc1cccc2ccccc12` (stereo not drawn) is higher in melting point: 119 °C for the first, 145 to 147 °C for the second.

Compared with `Cc1cc(C)c(F)cc1F`, `Fc1ccccc1C1=NCc2n[nH]cc2-c2ccc(Cl)cc21` is higher in melting point: 30 to 31 °C for the first, 208 to 210 °C for the second.

First: Cn1ncc(C=O)c1-c1ccc([N+](=O)[O-])o1
Second: CC(=O)N1c2ccccc2-n2cc(Cc3cccnc3)c(=O)c3cccc1c32
The melting point of the first is lower: 130 °C for the first, 143 to 144 °C for the second.

Compared with `NCC(O)CN1CCN(C(c2ccc(F)cc2)c2ccc(F)cc2)CC1` (stereo not drawn), `COC(=O)c1ccc(Cn2ccc(OCc3ccc(F)cc3F)c(Br)c2=O)cc1` is higher in melting point: 45 to 47 °C for the first, 136 to 139 °C for the second.

First: CC(=O)OCC1=C(C(=O)OC(c2ccccc2)c2ccccc2)N2C(=O)C(NC(=O)Cc3csc(-c4c(O)cccc4O)n3)C2SC1 (stereo not drawn)
Second: O=C(O)Cn1c(Cc2ccccc2)ccc(NC(=O)CCCc2ccccc2)c1=O
The melting point of the first is lower: 144 to 146 °C for the first, 159 to 161 °C for the second.

First: O=c1[nH]c2cc(Cl)c(Cl)cc2[n+]([O-])c1-c1ccccc1
Second: O=C1c2ccccc2C(=O)N1Cc1ccc(C2=COC(c3cc(Cl)cc(Cl)c3)(C(F)(F)F)C2)cc1Cl (stereo not drawn)
The melting point of the first is higher: 300 to 302 °C for the first, 99.7 °C for the second.

First: C=C(C)C(=O)OCCN(C(=O)c1ccc(C(=O)O)cc1C(=O)O)C(C)(C)C
Second: O=C(O)COc1ccc(Br)cc1C(=O)NCc1ccc(Br)cc1F
The melting point of the first is lower: 74 °C for the first, 153 to 155 °C for the second.

First: COC(=O)C(Cc1ccc(OCC(=O)Nc2ccc(Oc3ccc(C45CC6CC(CC(C6)C4)C5)cc3)cc2N(C)C(=O)OC(C)(C)C)cc1)OCc1ccc(F)cc1 (stereo not drawn)
Second: C#CC[C@@H](NCCCN1C(=O)c2ccccc2C1=O)c1nc2cc(Cl)ccc2c(=O)n1Nc1ccccc1
The melting point of the first is lower: 52 to 56 °C for the first, 78 to 80 °C for the second.

Compared with `COc1cc(OC)c(C2C=CCO2)cc1C=CC(=O)c1ccc(S(N)(=O)=O)cc1` (stereo not drawn), `O=C1C(c2ccc(O)cc2)=C(Br)c2ccc(O)cc21` is higher in melting point: 194 to 195 °C for the first, 240 °C for the second.
